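Growth conditions: 96-well plates. Treatment: test compound, 48 hours, 5 concentrations. Analysis: linear interpolation between bracketing concentrations; unreached endpoints set to highest concentration. GI50 = concentration required for 50% inhibition of growth. TGI denotes the concentration required for complete inhibition of growth.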
Legend:
Assay in all cases: NCI tumour cell line growth inhibition, 48 h
ACHN renal = tested on: ACHN renal
DLD-1 colon = tested on: DLD-1 colon
KM12 colon = tested on: KM12 colon
OVCAR-3 ovarian = tested on: OVCAR-3 ovarian
DMS 114 small cell lung = tested on: DMS 114 small cell lung
OVCAR-8 ovarian = tested on: OVCAR-8 ovarian
COLO 205 colon = tested on: COLO 205 colon
HOP-92 NSCLC = tested on: HOP-92 NSCLC
HCT-116 colon = tested on: HCT-116 colon
BT-549 breast = tested on: BT-549 breast

Row | Compound | TGI (ACHN renal) [µM] | TGI (DLD-1 colon) [µM] | TGI (KM12 colon) [µM] | TGI (OVCAR-3 ovarian) [µM] | TGI (DMS 114 small cell lung) [µM] | TGI (OVCAR-8 ovarian) [µM] | TGI (COLO 205 colon) [µM] | TGI (HOP-92 NSCLC) [µM] | TGI (HCT-116 colon) [µM] | GI50 (ACHN renal) [µM] | GI50 (HCT-116 colon) [µM] | GI50 (KM12 colon) [µM] | GI50 (OVCAR-3 ovarian) [µM] | GI50 (BT-549 breast) [µM] | TGI (BT-549 breast) [µM] | GI50 (OVCAR-8 ovarian) [µM] | GI50 (COLO 205 colon) [µM] | GI50 (HOP-92 NSCLC) [µM]
1 | Cn1c2c(c3ccccc31)C1CCCCC1C1C(=O)NC(=O)C21 (stereo not given) | > 100 | > 100 | > 100 | 58 | > 100 | > 100 | > 100 |  |  |  |  |  |  |  |  |  |  | 
2 | CC/C=C1\N=C(c2ccc(Cl)cc2)OC1=O | > 100 | > 100 | > 100 | > 100 | > 100 | > 100 | > 100 | > 100 |  |  |  |  |  |  |  |  |  | 
3 | O=S(O)CCCCCSSCCCCSSCCCCCS(=O)O | > 100 | > 100 | > 100 | > 100 | > 100 | > 100 | > 100 | > 100 |  |  |  |  |  |  |  |  |  | 
4 | O=C(CO)CC(=O)C(=O)Nc1nc([N+](=O)[O-])cs1 | > 100 | > 100 | > 100 | > 100 | > 100 | > 100 | > 100 |  | > 100 |  |  |  |  |  |  |  |  | 
5 | COc1ccc2oc3c4c2c1CCC4CCC3=O (stereo not given) | > 100 |  | > 100 | > 100 | > 100 | > 100 | > 100 | > 100 |  |  |  |  |  |  |  |  |  | 
6 | NC(CSC(c1ccccc1)(c1ccccc1)c1ccc(Cl)cc1)C(=O)O (stereo not given) | > 78.4 |  | 15.1 | 3.37 |  | 44.8 | 0.768 | 39.3 | 11.2 | 2.6 | 0.0476 | 0.322 | 0.255 | 0.324 | 15.8 | 0.412 | 0.256 | 1.4
7 | CC(=O)Nc1ccc(Sc2ccc([N+](=O)[O-])o2)cc1 | 4.29 |  | 9.08 | 1.95 |  | 13.4 | 1.82 | 3.55 | 2.75 | 1.62 | 0.924 | 2.84 | 0.664 | 5.22 | 10.6 | 3.06 | 0.651 | 1.76
8 | COc1ccc(/C(Cl)=C(\C=O)c2ccc([N+](=O)[O-])cc2)cc1OC | 25 |  | 94.4 | 38 | 22.3 | > 86 | > 58.3 | 24.9 | 24.9 |  |  |  |  |  |  |  |  | 
9 | COc1ccc(/C=C2\CCCCC2=O)cc1 | > 100 | > 100 |  | > 100 | > 100 | > 100 | > 100 |  | > 100 |  |  |  |  |  |  |  |  | 
10 | CCCCCC(O)C1C(=O)OC(C)C(O)/C=C/C=C/C=C/C=C\C=C(\C)C(O)CC(O)CC(O)CC(O)CC(O)CC(O)CC1O (stereo not given) | > 100 |  | > 100 | > 100 |  | > 100 | > 100 | > 100 | > 100 | > 100 | > 100 | > 100 | > 100 | > 100 | > 100 | > 100 | > 100 | > 100
11 | CC(C)c1ccccc1NC(=O)C(=O)Cc1nc2ccccc2s1 | > 100 |  | > 100 | > 100 | > 100 | > 100 | > 100 | > 100 | > 100 |  |  |  |  |  |  |  |  | 
12 | COc1ccc(Nn2c(SCC(=O)Nc3nc(-c4ccc(Cl)cc4)cs3)nc(C)c2C)cc1 | 8.76 |  | 11.1 | 24.2 |  | > 100 | 3.55 | 7.8 | 14.1 | 2.27 | 2.12 | 1.84 | 3.13 | 6.46 | 82 | 4.82 | 1.94 | 2.42
13 | C=C(C)[C@@H]1CC[C@]2(C)[C@H](C(=O)C=C3[C@@H]4C[C@](C)(C(=O)N5CCN(C)CC5)CC[C@]4(C)CC[C@]32C)[C@@]1(C)CCC#N | 13.5 |  | 13.4 | 13.2 |  | 16.2 | 13.4 | 10.2 | 9.33 | 7.02 | 3.03 | 6.43 | 6.33 | 6.67 | 13.4 | 8.12 | 5.78 | 3.25
14 | C/C(=N\NC(=O)c1ccncc1)c1ccc2ccccc2c1O | > 100 |  | 60.8 | 3.59 |  | 35.3 | 11.5 | > 100 | 10.5 |  |  |  |  |  | > 100 |  |  | 
15 | CCN(CC)c1cc(/C=C/c2ccc(OC)c(OC)c2)nc2cc(F)c(F)cc12 | 9.76 |  | > 100 | 33.3 |  | 80.8 | > 100 | 4.74 | 17.5 | 2.56 | 5.35 | > 100 | 5.54 | 2.03 | 5.28 | 5.54 | 26.7 | 1.68
16 | CCN(CC)CCCNc1cccc2c(SCc3ccccc3)ccnc12 | 3.27 |  | 3.38 | 3.43 |  | 11.5 | 3.44 | 7.32 | 2.95 | 1.81 | 1.6 | 1.75 | 1.75 | 1.62 | 3.35 | 3.41 | 1.84 | 2.18
17 | COc1ccc(NC(=O)n2nc(N)c3ccccc32)cc1OC | > 100 |  | > 100 | > 100 |  | > 100 | > 100 | > 100 | > 100 | 58.3 | 43.5 | 67.9 | 92 | 25.9 | > 100 | 39.7 | 85.8 | 24.6
18 | C1CCN(CCC2CCCCN2)CC1 (stereo not given) | > 100 |  | > 100 | > 100 |  | > 100 | > 100 | > 100 | > 100 |  |  |  |  |  | > 100 |  |  | 
19 | COc1ccc(C2=NNC(=O)OC2c2ccccc2)cc1 (stereo not given) | > 100 |  | > 100 | > 100 | > 100 | > 100 | > 100 | > 100 | > 100 |  |  |  |  |  |  |  |  | 
20 | CC(C)CCOc1ccc(-c2n[nH]c(C(F)(F)F)c2-c2cncc(C#N)c2)c(O)c1 | 9.02 |  | > 100 | 16.3 |  | 19.1 | 3.14 | 3.33 | 10.5 | 2.54 | 2.61 | 3.33 | 3.17 | 2.57 | 9.51 | 2.78 | 1.68 | 0.519
21 | CCn1cc(/C=C/C(C)c2cn(CC)c(=O)[nH]c2=O)c(=O)[nH]c1=O (stereo not given) | > 100 | > 100 | > 100 | > 100 | > 100 | > 100 | > 100 | > 100 |  |  |  |  |  |  |  |  |  | 
22 | CN(C)c1ccc(/C=C(/NC(=O)c2ccccc2)c2nc3ccc(Cl)cc3[nH]2)cc1 | > 100 | > 100 | > 100 | > 9.31 |  | > 100 | 66.7 | 80.1 | > 100 |  |  |  |  | 25.4 | 85.8 |  |  | 
23 | O=[N+]([O-])c1ccc(-c2nc(-c3ccccc3)c(-c3ccccc3)n2-c2ccccc2)cc1 | 27.4 |  | 5.6 | 6.67 |  | > 100 | 3.49 | 7.44 | 14 | 2.62 | 3.47 | 2.3 | 2.43 | 2.16 | 6.53 | 3.19 | 1.78 | 2.42
24 | N#Cc1c(-c2ccc(Cl)cc2)n(O)c2ccccc12 | 91.2 |  | 11.7 | 6.39 |  | 8.78 | 30.7 | 3.5 | 8.69 | 3.68 | 2.29 | 2.17 | 2.6 | 1.16 | 7.97 | 2.65 | 13.4 | 1.02
25 | CCSCC(N)C(=O)O (stereo not given) | > 100 |  | > 100 | > 100 |  | > 100 | > 100 | > 100 | > 100 |  |  |  |  |  | > 100 |  |  | 
26 | CCCCCCCC/C=C/CCCCCCCC1=NCC[N+]1(CCO)CCO | 20.8 |  | 3.61 | 4.42 |  | 10 | 4.91 | 5.53 | 8.78 | 6.11 | 2.81 | 1.87 | 1.94 | 3.17 | 10.8 | 2.66 | 1.98 | 1.62
27 | O=C1OCC(c2cccs2)=C1Cl | > 100 |  | > 100 | > 100 |  | > 100 | > 100 | > 100 | > 100 | 56.7 | > 100 | 76.3 | 44.8 | 33.4 | > 100 | 90.1 | 32.2 | 54.5
28 | CC(C)[C@@]12C[C@@H](OC(=O)[C@H]3CO3)[C@@](C)(O1)[C@@H]1CC[C@@H](C)[C@H]1[C@@H]2OC(=O)/C=C/c1ccccc1 | 3.07 |  | > 60 | 30.8 |  | > 52.4 | > 65.1 | 27.1 | > 100 | 0.108 | 9.46 | 19.1 | 12.3 | 1.34 | 13.7 | 0.434 | 23.2 | 9.22
